# Experiments:
# [1] = target: T1, S. cerevisiae ALS wild type (Saccharomyces cerevisiae, UniProt P07342); test: ALS biochemical assay (ScALS), wild type
# T1 construct: made in house; host or cells: E. coli BL21 (DE3), pET28a-ScILV2
# Protocol: ALS biochemical assay (ScALS)
# Saccharomyces cerevisiae acetohydroxyacid synthase (ScALS) lacking the N-terminal […]
# Escherichia coli as an N-terminally His6-tagged protein. Assays (50 µL final volume) contained […]
# adenine dinucleotide, 10 mM MgCl2, 1 mM DTT, 1% DMSO (± inhibitor) in 500 mM K2HPO4 buffer at pH 7.5. Following a 30 min pre-incubation of the enzyme and inhibitor in the reaction mixture at room temperature, reactions were initiated with the addition of pyruvate. ScALS assays were carried out at 30 °C for 60 min. The reaction was quenched with the addition of 5 µL of 10% H2SO4 (v/v in deionized water). Reactions were incubated at 60 °C at 800 rpm in an […]
# to acetoin. Subsequently, the concentration of acetoin was determined by the addition of 7.5 µL 6 M NaOH, 25 µL 0.5% creatine (w/v in deionized water), and 25 µL 4% 1-naphthol (w/v in 2.5 M NaOH). This mixture was incubated at 60 °C at 800 rpm in an incubating microplate shaker for […]
# 40 µL of this reaction mixture was transferred to a half area UV-star 96-well plate (Grenier) and the absorbance at 525 nm was measured on a Spark multimode plate reader (Tecan). The percent inhibition was calculated by the comparison of the signal to DMSO (0% […]
# IC50 values were calculated from the dose response curves using Prism 9 (four parameter, variable slope). […]
# Expression and purification of ScALS
# S. cerevisiae ILV2 (the gene or ScALS) lacking the N-terminal mitochondrial-localization tag
# A. fumigatus ALS = A. fumigatus ALS (Aspergillus fumigatus, UniProt Q4WXQ3); test: ALS biochemical assay (AfALS)
# Protocol: ALS biochemical assay (AfALS)
# Aspergillus fumigatus acetohydroxyacid synthase (AfILV2) lacking the N-terminal mitochondrial-targeting sequence (amino acids 112-752) was overproduced and isolated from E. coli as an N-terminally His6-tagged protein. Assays (50 µL final volume) contained 200 nM His6-AfALS, 8 mM pyruvate, 1 mM thiamine pyrophosphate, and 10 µM flavin adenine dinucleotide, 10 mM MgCl2, 1 mM DTT, 1% DMSO (± inhibitor) in 200 mM KH2PO4 buffer at pH
# 7.5. Following a 30 min pre-incubation of the enzyme and inhibitor in the reaction mixture at room temperature, reactions were initiated with the addition of pyruvate. AfALS assays were carried out at 30 °C for 120 min. The reaction was quenched with the addition of 5 µL of 10% H2SO4 (v/v in deionized water). Reactions were incubated at 60 °C at incubating microplate shaker for 15 min to convert the product of the ALS reaction, acetolactate, to acetoin.
# Subsequently, the concentration of acetoin was determined by the addition of 7.5 µL 6 M NaOH, 25 µL 0.5% creatine (w/v in deionized water), and 25 µL 4% 1-naphthol (w/v in 2.5 M NaOH).
# This mixture was incubated at 60 °C in an incubating microplate shaker for 15 min. 40 µL of this reaction mixture was transferred to a half area UV-star 96-well plate (Grenier) and the absorbance at 525 nm was measured on a Spark multimode plate reader (Tecan). The percent inhibition was calculated by the comparison of the signal to DMSO (0% inhibition) and no enzyme (100% inhibition) controls. IC50 values were calculated from the dose response curves using Prism 9 (four parameter, variable slope). […]
# (amino acids 58-687) was codon optimized for expression in E. coli and synthesized by […]
# Plasma stability, mouse = assay type: in vitro ADME; settings: read-out: Plasma t1/2 Mouse
# physchem [2] = settings: aqueous with cosolvent or surfactant or cyclodextrin, kinetic from dmso stock
# physchem [3] = settings: buffer, pH 7.4
# T1 sequence (P07342 58-687): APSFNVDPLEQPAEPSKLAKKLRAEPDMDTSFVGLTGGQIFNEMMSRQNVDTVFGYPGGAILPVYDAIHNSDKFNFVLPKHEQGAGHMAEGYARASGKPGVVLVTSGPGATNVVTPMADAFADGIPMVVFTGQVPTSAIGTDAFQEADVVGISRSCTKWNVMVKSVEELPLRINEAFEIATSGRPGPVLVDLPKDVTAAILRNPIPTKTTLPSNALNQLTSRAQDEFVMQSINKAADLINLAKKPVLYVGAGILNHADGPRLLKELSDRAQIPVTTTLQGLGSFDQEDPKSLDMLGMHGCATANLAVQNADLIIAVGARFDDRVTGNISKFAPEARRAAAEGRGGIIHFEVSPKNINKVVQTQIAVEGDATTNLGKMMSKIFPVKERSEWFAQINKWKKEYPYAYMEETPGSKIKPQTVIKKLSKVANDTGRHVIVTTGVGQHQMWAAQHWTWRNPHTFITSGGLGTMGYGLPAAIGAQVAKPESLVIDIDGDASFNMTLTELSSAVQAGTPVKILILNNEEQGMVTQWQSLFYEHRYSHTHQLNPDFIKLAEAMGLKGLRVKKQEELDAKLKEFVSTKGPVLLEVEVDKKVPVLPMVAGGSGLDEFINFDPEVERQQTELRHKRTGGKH
# A. fumigatus ALS, sequence (Q4WXQ3 entry or part of it): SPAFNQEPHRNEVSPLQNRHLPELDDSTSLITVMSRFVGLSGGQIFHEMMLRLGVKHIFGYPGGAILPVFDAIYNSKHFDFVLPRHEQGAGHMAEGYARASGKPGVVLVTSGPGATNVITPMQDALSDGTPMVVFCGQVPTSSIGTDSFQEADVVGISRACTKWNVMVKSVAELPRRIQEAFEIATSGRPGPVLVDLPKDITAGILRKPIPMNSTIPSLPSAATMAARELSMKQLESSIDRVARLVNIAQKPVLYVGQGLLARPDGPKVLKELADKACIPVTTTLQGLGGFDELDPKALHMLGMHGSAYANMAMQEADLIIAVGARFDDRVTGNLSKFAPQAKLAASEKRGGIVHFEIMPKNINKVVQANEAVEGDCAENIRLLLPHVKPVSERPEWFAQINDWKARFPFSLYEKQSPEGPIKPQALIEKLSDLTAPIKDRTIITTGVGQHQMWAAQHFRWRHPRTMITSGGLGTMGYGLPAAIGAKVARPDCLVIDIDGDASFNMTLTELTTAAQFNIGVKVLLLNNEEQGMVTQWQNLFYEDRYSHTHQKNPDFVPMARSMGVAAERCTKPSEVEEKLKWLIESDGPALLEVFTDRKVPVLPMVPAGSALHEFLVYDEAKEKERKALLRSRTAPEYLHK
compound,measurement,setting,value
CCCC1C(C)=CC2CC=CC3(C)C2C1C(=O)C31C(=O)NC(CCCO)C1=O (stereo not drawn) [compound 1],potency against ScALS compared with diastereomer 13,[1]; Figure S6,significantly more potent
same,IC50,"[1]; recombinant ScALS, read-out: S. cerevisiae ALS IC50 Wild type",15 ± 1 nM
same,IC50,A. fumigatus ALS,49 ± 8 nM
same,half-life,"Plasma stability, mouse",88 min
same,solubility kinetic,physchem [2],260 µM
same,half-life,physchem [3],141 min

# Source: publication PMC12947280, “An Antifungal with a Novel Mechanism of Action Discovered via Resistance Gene-Guided Genome Mining” (ACS Central Science, 2026)
